How the values were obtained:
H2 -receptor = conditions: said in U.S. Pat. No. 4,203,909; cited from earlier work
H2 -receptors = biological target: T1, H2 -receptors (Rattus norvegicus, UniProt P25102); assay: H2-receptor blocking activity, histamine relaxation of KCl-contracted isolated rat uterine horns; format: cell-based; conditions: for Kb: antagonist 10^-5 molar for 30 minutes, rat uterine strips, histamine dose-response shift, read-out: pA2 (-log KB) (converted)
T1 construct: uterine horns removed therefrom and suspended at ambient temperatures in isolated organ baths; from tissue; host or cells: isolated uterine horns of estrone-treated female albino rats
T1 sequence (P25102 whole entry): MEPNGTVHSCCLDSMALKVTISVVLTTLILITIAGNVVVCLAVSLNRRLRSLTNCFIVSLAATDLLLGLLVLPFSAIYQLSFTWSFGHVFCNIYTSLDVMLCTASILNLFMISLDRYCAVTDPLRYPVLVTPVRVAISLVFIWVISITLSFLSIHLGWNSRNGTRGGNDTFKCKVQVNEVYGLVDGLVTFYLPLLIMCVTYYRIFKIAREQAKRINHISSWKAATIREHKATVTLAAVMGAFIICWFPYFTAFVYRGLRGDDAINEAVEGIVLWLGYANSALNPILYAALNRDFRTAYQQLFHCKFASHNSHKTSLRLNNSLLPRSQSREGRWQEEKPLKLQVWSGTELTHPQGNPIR
Experimental: The following assay for H2 -receptor blocking activity was employed. Female albino rats were treated with estrone 24 hours prior to the initiation of the experiment. The rats were sacrificed and the uterine horns removed therefrom and suspended at ambient temperatures in isolated organ baths containing De Jalon's solution. After equilibration, the uterine strips are exposed to 50 millimole aqueous potassium chloride, which produces a sustained contraction. When the uterus is so contracted, histamine produces a dose-dependent H2 -receptor-mediated relaxation. A control dose-response curve to histamine is constructed on each tissue. Following thorough washout of the histamine after obtaining the control dose-response curve, each antagonist (the compounds of this invention) is added for 30 minutes at a concentration of 10^-5 molar. The uterine strips are then contracted with aqueous potassium chloride in the presence of the antagonist and a second dose-response curve to histamine obtained. In the presence of a competitive antagonist, the dose-response curve to histamine is shifted in parallel to the right with no depression of the maximum relative to the control curve. The dose ratio (DR) is calculated for each concentration of antagonist by dividing the ED50 of histamine in the presence of the competitive antagonist by the control ED50 for histamine. The dissociation constant (KB ) of the antagonist is calculated from the dose-ratios by the following equation: […]
Cimetidine is included as an internal standard.

acid secretion = assay: in vivo antisecretory action on histamine-stimulated acid secretion in gastric fistula dogs
Experimental: An in vivo assay for antisecretory action of drugs on acid secretion utilizes gastric fistula dogs with vagally innervated gastric fistula and vagally denervated Heidenhain pouch. In this procedure, a steady-state gastric secretion is produced by the iv infusion of histamine. The antisecretory drugs under test are given either intravenously by infusion over a 30 minute period or orally 75 min. prior to collection of gastric secretion from the fistula.

H2 receptor = conditions: prior art; cited from earlier work

## C#CCNC(=C[N+](=O)[O-])NCCSCc1ccc(CN(C)C)o1 [1-nitro-2-(2-propynylamino)-2-(2-[(5-dimethylaminomethyl-2-furyl)methylthio]ethylamino)ethylene]
H2 -receptor
  times the activity of cimetidine: 7.45 times

## C#CCNC(=NC#N)NCCSCc1csc(CN(C)C)n1 [N-2-propynyl-N'-2-(2-dimethylaminomethyl-4-thiazolylmethylthio)ethyl-N"-cyanoguanidine]
H2 -receptors
  Kb: 1000 nM

## C#CCNC(=C[N+](=O)[O-])NCCSCc1csc(CN(C)C)n1 [N-(2-propynyl)-N'-2-(2-dimethylaminomethyl-4-thiazolylmethylthio)ethyl 2-nitro-1,1-ethenediamine]
H2 -receptors
  Kb: 186 nM
H2 -receptors; relative to cimetidine internal standard
  times higher affinity for the H2 -receptors than cimetidine: approximately 3.63 times
Acid secretion; Canis lupus familiaris, 0.5 h, iv infusion over 30 minutes, histamine-stimulated gastric secretion
  ED50: 0.068 µmol/kg
Acid secretion; iv, relative to cimetidine
  times smaller ED50 (iv) than that found for cimetidine: over 7 times

## CNC(=C[N+](=O)[O-])NCCSCc1ccc(CN(C)C)o1 [ranitidine]
H2 receptor
  H2 receptor antagonist activity compared with cimetidine: greater H2 receptor antagonist activity than cimetidine
